This is an account of results in patent publication US10966426B2, “Herbicidal compositions comprising phenylpyrimidines” (BASF SE, priority 2016, dated 2021).

Type in all cases: in vivo
For one assay, the system named is Brachiaria decumbens. Kind of assay: greenhouse pre-emergence treatment, BRADC. The settings on record: Urochloa decumbens, 480 h, 20 DAT. The gist of the method:
(§1)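 Pre-emergence spray of compounds, alone or as combinations formulated as 10% emulsion concentrate in water, directly after sowing in loamy sand (~3.0% humus); pots hooded until rooting, kept at 10-25° C or 20-35° C per species for 2 to 4 weeks. Damage scored 0-100 (100 = no emergence/complete destruction); Colby expected value E=X+Y−(X·Y/100).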

A further assay has as its system Bromus sterilis. Kind of assay: greenhouse pre-emergence treatment, BROST. The following applies: BROST, 20 DAT; for pest or weed control at 62.5 g/ha: Bromus sterilis, 480 h. The source says:
(§2) The culture containers used were plastic pots containing loamy sand with approximately 3.0% of humus as substrate. The seeds of the test plants were sown separately for each species.
(§3) For the pre-emergence treatment, the active compounds, suspended or emulsified in water, were applied directly after sowing by means of finely distributing nozzles. The containers were irrigated gently to promote germination and growth and subsequently covered with transparent plastic hoods until the plants had rooted. This cover caused uniform germination of the test plants unless this was adversely affected by the active compounds.
(§4) Depending on the species, the plants were kept at 10-25° C. and 20-35° C., respectively.
(§5) The test period extended over 2 to 4 weeks. During this time, the plants were tended and their response to the individual treatments was evaluated.
(§6) Evaluation was carried out using a scale from 0 to 100. 100 means no emergence of the plants, or complete destruction of at least the above-ground parts, and 0 means no damage or normal course of growth. A good herbicidal activity is given at values of at least 70, and very good herbicidal activity is given at values of at least 85.
(§7) The respective stated components A and B, and if appropriate, C were formulated as a 10% by weight strength emulsion concentrate and, with addition of the amount of solvent system, introduced into the spray liquor used for applying the active compound. In the examples, the solvent used was water.
(§8) In the examples below, using the method of S. R. Colby (1967) “Calculating synergistic and antagonistic responses of herbicide combinations”, Weeds 15, p. 22ff., the value E, which is expected if the activity of the individual active compounds is only additive, was calculated. E=X+Y−(X·Y/100) where X=effect in percent using herbicide A at an application rate a; • Y=effect in percent using herbicide B at application rate b; • E=expected effect (in %) of herbicide A+herbicide B at application rates a+b.

Another assay has as its system Alopecurus myosuroides. Description: greenhouse pre-emergence treatment, ALOMY. The settings on record: 20 DAT.
Description: as §2, §3, §4, §5, §6, §7, §8

A further assay has as its system Stellaria media. Description: greenhouse pre-emergence treatment, STEME. The following applies: 20 DAT.
Description: as §2, §3, §4, §5, §6, §7, §8

A further assay deals with Lolium multiflorum. Kind of assay: greenhouse pre-emergence treatment, LOLMU. The settings on record: Lolium multiflorum, 480 h, 20 DAT.
Description: as §2, §3, §4, §5, §6, §7, §8

A further assay concerns Papaver rhoeas. Kind of assay: greenhouse pre-emergence treatment, PAPRH. The settings on record: 20 DAT.
Description: as §2, §3, §4, §5, §6, §7, §8

In the next assay the test system is Ambrosia elatior. Kind of assay: greenhouse pre-emergence treatment, AMBEL. The gist of the method:
as §1

Another assay concerns Avena fatua. Description: greenhouse pre-emergence treatment, AVEFA. The following applies: 20 DAT.
Description: as §2, §3, §4, §5, §6, §7, §8

A further assay has as its system Helianthus annuus. Kind of assay: greenhouse pre-emergence treatment, HELAN. The following applies: HELAN, 20 DAT. The gist of the method:
as §1

In a further assay the test system is Galium aparine. Description: greenhouse pre-emergence treatment, GALAP.
Description: as §2, §3, §4, §5, §6, §7, §8

For the next assay, the system named is Apera spica-venti. Kind of assay: greenhouse pre-emergence treatment, APESV. The following applies: 20 DAT.
Description: as §2, §3, §4, §5, §6, §7, §8

Another assay relates to Digitaria sanguinalis. Description: greenhouse pre-emergence treatment, DIGSA. The settings on record: Digitaria sanguinalis, 480 h, 20 DAT.
Description: as §2, §3, §4, §5, §6, §7, §8

A further assay concerns Poa annua. Kind of assay: greenhouse pre-emergence treatment, POAAN. The settings on record: 20 DAT.
Description: as §2, §3, §4, §5, §6, §7, §8

The next assay has as its system Polygonum convolvulus. Kind of assay: greenhouse pre-emergence treatment, POLCO. The following applies: Fallopia convolvulus, 480 h, 20 DAT, saflufenacil solo 12.5 gai/ha.
Description: as §2, §3, §4, §5, §6, §7, §8

For a further assay, the system named is Setaria viridis. Kind of assay: greenhouse pre-emergence treatment, SETVI. The following applies: 20 DAT; for % activity: SETVI.
Description: as §2, §3, §4, §5, §6, §7, §8

Setting [1] is: solo dimethenamid (EC 720 g/l) 62.5 gai/ha.
Where [2] appears, read: dimethenamid solo (EC 720 g/l), 62.5 gai/ha.
Where [3] appears, read: dimethenamid solo (EC 720 g/l), 125 gai/ha.
The mark [4] stands for this setting: solo quinmerac (WP 50%) 62.5 gai/ha.
Setting [5] is: solo quinmerac (WP 50%) 250 gai/ha.
The mark [6] stands for this setting: solo saflufenacil (SC 342 g/l) 6.25 gai/ha.
[7] abbreviates: solo saflufenacil (SC 342 g/l) 25 gai/ha.

For the molecule `COCC(C)N(C(=O)CCl)c1c(C)csc1C` (stereo not shown) [dimethenamid], the pest or weed control at 31.25 g/ha with Brachiaria decumbens (dimethenamid solo (EC 720 g/l), 31.25 gai/ha, BRADC) was determined as 60%; with Ambrosia elatior (Ambrosia artemisiifolia, 480 h, AMBEL, 20 DAT, solo dimethenamid (EC 720 g/l) 31.25 gai/ha), 0%; with Galium aparine (Galium aparine, 480 h, dimethenamid solo (EC 720 g/l), 31.25 gai/ha, 20 DAT, GALAP), 50%. Besides, the “% activity” value in the assay with Bromus sterilis (setting [1]) stood at 80%; in the assay with Alopecurus myosuroides (setting [3]) it was 60%; in the assay on Alopecurus myosuroides (dimethenamid solo (EC 720 g/l), 250 gai/ha), 65%; with Stellaria media (dimethenamid solo (EC 720 g/l), 31.25 gai/ha) it was 80%; with Stellaria media (setting [2]), 90%; with Papaver rhoeas (setting [1]), 90%. Also, the “% activity” value is 90% in the assay with Papaver rhoeas (setting [2]); 90% in the assay with Papaver rhoeas (setting [3]); 20% in the assay with Ambrosia elatior (AMBEL, 20 DAT, solo dimethenamid (EC 720 g/l) 125 gai/ha); 30% in the assay with Ambrosia elatior (AMBEL, 20 DAT, solo dimethenamid (EC 720 g/l) 250 gai/ha); 10% in the assay with Avena fatua (AVEFA, solo dimethenamid (EC 720 g/l) 62.5 gai/ha); 35% in the assay on Helianthus annuus (solo dimethenamid (EC 720 g/l) 250 gai/ha). The “% activity” value with Galium aparine (GALAP, 20 DAT, solo dimethenamid (EC 720 g/l) 31.25 gai/ha) worked out at 50%; in the assay on Galium aparine (GALAP, 20 DAT, solo dimethenamid (EC 720 g/l) 62.5 gai/ha) it was 60%; with Galium aparine (GALAP, 20 DAT, solo dimethenamid (EC 720 g/l) 125 gai/ha), 50%. The pest or weed control at 62.5 g/ha with Bromus sterilis (setting [2]) was determined as 80%; with Lolium multiflorum (dimethenamid solo (EC 720 g/l), 62.5 gai/ha, LOLMU), 80%; in the assay with Ambrosia elatior (Ambrosia artemisiifolia, 480 h, AMBEL, 20 DAT, solo dimethenamid (EC 720 g/l) 62.5 gai/ha), 0%; in the assay on Avena fatua (Avena fatua, 480 h, dimethenamid solo (EC 720 g/l), 62.5 gai/ha, AVEFA), 10%; with Galium aparine (Galium aparine, 480 h, dimethenamid solo (EC 720 g/l), 62.5 gai/ha, 20 DAT, GALAP) it was 60%. Also, the pest or weed control at 125 g/ha is 20% in the assay on Ambrosia elatior (Ambrosia artemisiifolia, 480 h, dimethenamid solo (EC 720 g/l), 125 gai/ha, 20 DAT, AMBEL); 50% in the assay with Avena fatua (Avena fatua, 480 h, dimethenamid solo (EC 720 g/l), 125 gai/ha, AVEFA); 50% in the assay on Galium aparine (Galium aparine, 480 h, dimethenamid solo (EC 720 g/l), 125 gai/ha, 20 DAT, GALAP). Moreover, the pest or weed control at 250 g/ha in the assay with Ambrosia elatior (Ambrosia artemisiifolia, 480 h, dimethenamid solo (EC 720 g/l), 250 gai/ha, 20 DAT, AMBEL) is 30%; with Avena fatua (Avena fatua, 480 h, dimethenamid solo (EC 720 g/l), 250 gai/ha, AVEFA) it was 65%. Besides, the plant injury (usually how far the test organism was held down) at 250 g/ha with Helianthus annuus (Helianthus annuus, 480 h, dimethenamid solo (EC 720 g/l), 250 gai/ha) was 35%.

Consider `Cc1cnc2c(C(=O)O)c(Cl)ccc2c1` [quinmerac], for which the pest or weed control at 62.5 g/ha was found to be 0% in the assay with Brachiaria decumbens (quinmerac solo (WP 50%), 62.5 gai/ha, BRADC); 0% with Bromus sterilis (setting [4]); 0% in the assay with Digitaria sanguinalis (DIGSA, solo quinmerac (WP 50%) 62.5 gai/ha). Moreover, the pest or weed control at 125 g/ha in the assay on Brachiaria decumbens (quinmerac solo (WP 50%), 125 gai/ha, BRADC) came to 0%; in the assay with Avena fatua (Avena fatua, 480 h, AVEFA, solo quinmerac (WP 50%) 125 gai/ha), 0%; with Digitaria sanguinalis (DIGSA, solo quinmerac (WP 50%) 125 gai/ha) it was 0%; with Galium aparine (Galium aparine, 480 h, GALAP, 20 DAT, solo quinmerac (WP 50%) 125 gai/ha) it was 95%. Moreover, the pest or weed control at 250 g/ha was found to be 30% in the assay on Brachiaria decumbens (quinmerac solo (WP 50%), 250 gai/ha, BRADC); 0% in the assay with Lolium multiflorum (LOLMU, solo quinmerac (WP 50%) 250 gai/ha); 0% in the assay on Ambrosia elatior (Ambrosia artemisiifolia, 480 h, AMBEL, 20 DAT, solo quinmerac (WP 50%) 250 gai/ha). Moreover, the “% activity” value with Stellaria media (setting [5]) worked out at 0%; in the assay on Papaver rhoeas (setting [5]), 95%; in the assay with Apera spica-venti (setting [4]), 0%; in the assay with Apera spica-venti (setting [5]), 25%; with Poa annua (setting [4]), 0%; in the assay with Poa annua (solo quinmerac (WP 50%) 125 gai/ha), 0%. In addition, the “% activity” value with Poa annua (setting [5]) worked out at 0%. For the same molecule, the pest or weed control at 31.25 g/ha in the assay with Avena fatua (Avena fatua, 480 h, AVEFA, solo quinmerac (WP 50%) 31.25 gai/ha) was 0%; with Digitaria sanguinalis (DIGSA, solo quinmerac (WP 50%) 31.25 gai/ha), 0%. In the assay with Helianthus annuus (Helianthus annuus, 480 h, solo quinmerac (WP 50%) 125 gai/ha), the plant injury at 125 g/ha was found to be 0%. Further, in the assay with Helianthus annuus (Helianthus annuus, 480 h, quinmerac solo (WP 50%), 62.5 gai/ha), the plant injury at 62.5 g/ha is 0%.

On to `CC(C)N(C)S(=O)(=O)NC(=O)c1cc(-n2c(=O)cc(C(F)(F)F)n(C)c2=O)c(F)cc1Cl` [saflufenacil], for which the % herbicidal activity (weed control, 0-100 scale) at 6.25 g/ha in the assay with Brachiaria decumbens (saflufenacil solo 6.25 gai/ha) came to 10%. In addition, the % herbicidal activity (weed control, 0-100 scale) at 12.5 g/ha with Brachiaria decumbens (saflufenacil solo 12.5 gai/ha) turned out to be 20%; in the assay on Galium aparine (Galium aparine, 480 h, 20 DAT, saflufenacil solo 12.5 gai/ha), 80%. Further, the “% activity” value came out at 0% in the assay on Alopecurus myosuroides (setting [6]); 0% in the assay on Alopecurus myosuroides (solo saflufenacil (SC 342 g/l) 12.5 gai/ha); 0% with Alopecurus myosuroides (setting [7]); 25% in the assay on Setaria viridis (setting [6]); 65% in the assay with Setaria viridis (setting [7]). Also, the inhibition (as a rule, the change of the read-out against control, counted positive when it falls) at 6.25 g/ha in the assay with Lolium multiflorum (saflufenacil solo 6.25 gai/ha) stood at 10%; in the assay with Avena fatua (Avena fatua, 480 h, saflufenacil solo 6.25 gai/ha), 0%; in the assay with Digitaria sanguinalis (saflufenacil solo 6.25 gai/ha), 10%; in the assay on Setaria viridis (Setaria viridis, 480 h, saflufenacil solo 6.25 gai/ha), 25%. The percent weed control (herbicidal activity, 0-100 scale) at 6.25 g/ha with Ambrosia elatior (Ambrosia artemisiifolia, 480 h, 20 DAT, saflufenacil solo 6.25 gai/ha) was 45%. In the assay with Ambrosia elatior (Ambrosia artemisiifolia, 480 h, Table X11, 20 DAT, AMBEL, solo saflufenacil (title: flumioxazin, WG 51%) 3.75 gai/ha), the pest or weed control at 3.75 g/ha came out at 0%. For the same molecule, the inhibition at 25 g/ha was 35% in the assay on Digitaria sanguinalis (saflufenacil solo 25 gai/ha) and 65% in the assay with Setaria viridis (Setaria viridis, 480 h, saflufenacil solo 25 gai/ha). Further, the inhibition at 12.5 g/ha came out at 90% in the assay on Polygonum convolvulus and 40% in the assay with Setaria viridis (Setaria viridis, 480 h, saflufenacil solo 12.5 gai/ha). Moreover, in the assay with Setaria viridis (Setaria viridis, 480 h, saflufenacil solo 50 gai/ha), the inhibition at 50 g/ha stood at 90%. In the assay on Galium aparine (Galium aparine, 480 h, Table X11, 20 DAT, GALAP, solo saflufenacil (title: flumioxazin, WG 51%) 30 gai/ha, read-out: % activity), the pest or weed control at 30 g/ha was found to be 65%.
